The record followed here is the SangsterLogP compilation.

For this data set the following is noted: pH 7.4.

As for `CC(C)(C)OC(=O)N1CCN(c2ccc(OCc3ccc(S(C)(=O)=O)cc3)cc2)CC1`, the logD turned out to be 3.9.

`CC(C)(C)OC(=O)N1CCN(c2cnc(OCc3ccc(S(C)(=O)=O)cc3)cn2)CC1`: the logD was determined as 3.4.

The compound `C[C@@H](Oc1ccc(S(C)(=O)=O)cc1C(=O)N1CCN(c2ncc(C(F)(F)F)cc2F)CC1)C(F)(F)F` returned a logD of 3.49. The logD values of the last two compounds are within 0.2 log units of each other.

The compound `N#CC1(NC(=O)[C@@H]2CCCC[C@H]2C(=O)N2CCc3oc4ccccc4c3C2)CC1` registered a logD of 3.01.

For the compound `Cc1cccc2c3c([nH]c12)CCN(C(=O)[C@@H]1CCCC[C@H]1C(=O)NC1(C#N)CC1)C3`, the logD worked out at 2.99.

`Cc1nc2nc[nH]n2c(=O)c1CCOC(=O)c1ccccc1F`: the logD amounted to 0.99.

On to `COc1ccc(N(C(=O)c2ccccc2)C(C(=O)NC[C@@H](C)O)c2ccccc2F)c(OC)c1` (some centres undefined), for which the logD worked out at 2.55.

`C[C@H]1O[C@@H](n2cnc3c(N)nc(OCC4CC45CC5)nc32)[C@H](O)[C@@H]1O` (some centres undefined) returned a logD of 1.78.

The compound `COc1cc(OC)c(S(=O)(=O)N2c3ccccc3CCC2C)cc1NC(=O)CSc1ccncc1` (centres undefined) registered a logD of 2.82.

`O=C(Nc1cccc2cccnc12)C1CCC(N2C(=O)[C@@H]3[C@@H]4CC[C@@H](C4)[C@@H]3C2=O)CC1` (some centres undefined) had a logD of 3.94.

Compound `C[C@@H]1COCCN1c1cc(C2(S(C)(=O)=O)CC2)nc(-c2cccc3[nH]ccc23)n1` gave a log distribution coefficient (logD) of 2.7.

Compound `CC(C)(C)OC(=O)N1CCN(c2ncc(OCc3ccncc3)cn2)CC1` gave a logD of 3.4.

In turn, `C[C@@H]1CN(c2nc(C(F)(F)F)no2)CCN1c1ncc(OCc2ccncc2C#N)cn1` returned a logD of 3.1.

`CC(C)(C#N)c1cnc(N2CCN(C(=O)[C@@H]3CCCC[C@H]3C(=O)NC3(C#N)CC3)CC2)s1`: the logD is 1.9.

The compound `N#CC1(NC(=O)[C@@H]2CCCC[C@H]2C(=O)N2CCN(c3nc4ncccc4s3)CC2)CC1` gave a logD of 1.4.

`C[C@H]1CN(C(=O)OC(C)(C)C)CCN1c1ncc(OCc2ccc(S(C)(=O)=O)cc2)cn1`: the logD was determined as 3.5.

The compound `Cc1cc(C(C)Nc2ccccc2)c2nc(N3CCOCC3)cc(=O)n2c1` (centres undefined) had a logD of 3.6.

On to `Cc1ncc(-c2ccnc(Nc3ccc(N4CCOCC4)cc3)n2)n1C(C)C`, for which the pH-dependent lipophilicity (logD) is 2.88.

For the compound `COc1ccc(N(C(=O)c2ccccc2)C(C(=O)NC2CCCC2)c2ccccc2F)c(OC)c1` (centres undefined), the logD was found to be 3.86.

In turn, `CCNC(=O)c1cc2c(-n3ccc(C(F)(F)F)n3)c(-c3cncc(-c4n[nH]c(=O)o4)c3)cnc2[nH]1` had a logD of 1.65.

`COc1ccc(N(C(=O)c2occc2CO)C(C(=O)NC[C@@H](C)O)c2ccccc2F)c(OC)c1` (some centres undefined) returned a logD of 1.37.

The compound `Cc1nnc(C)c2cc(N3CCN(C(=O)[C@@H]4CCCC[C@H]4C(=O)NC4(C#N)CC4)[C@H](C)C3)ccc12` showed a logD of 1.93.

The compound `COc1c/c(=C2\C=c3ccccc3=N2)[nH]/c1=C\c1[nH]c(C)cc1C` gave a logD of 2.55.

`N#CC1(NC(=O)[C@@H]2CCCC[C@H]2C(=O)N2CCc3[nH]c4ccccc4c3C2)CC1`: the logD was found to be 2.66.

In turn, `CCCCN1Cc2c(nc3cc(-c4ccco4)[nH]n3c2=O)C1=O` yielded a logD of 0.8.

Compound `C[C@H](C#N)NC(=O)[C@@H]1CCCC[C@H]1C(=O)N1CCc2[nH]c3ccc(F)cc3c2C1` came in with a logD of 3.1.

In turn, `N#CC1(NC(=O)[C@@H]2CCCC[C@H]2C(=O)N2CCc3[nH]c4cccc(F)c4c3C2)CC1` showed a log distribution coefficient (logD) of 3.2. The logD values of the last two compounds are within 0.2 log units of each other.

`COc1ccc(N2CCN(C(=O)[C@@H]3CCCC[C@H]3C(=O)NCC#N)CC2)cc1` showed a logD of 1.6.

Compound `CC(=O)NC1CN(c2ccc(Nc3ncc(F)c(-c4cnc(C)n4C(C)C)n3)cc2)C1` displayed a pH-dependent lipophilicity (logD) of 2.76.

The compound `CCOc1cccc2c3c([nH]c12)CCN(C(=O)[C@@H]1CCCC[C@H]1C(=O)NC1(C#N)CC1)C3` showed a logD of 3.1.

Take `COc1ccc(N2CCN(C(=O)[C@@H]3CCCC[C@H]3C(=O)NC3(C#N)CC3)[C@H](C)C2)cc1OC`: the log distribution coefficient (logD) was 1.85.

For `COc1cc(OC)c(S(=O)(=O)NCc2ccccc2N2CCC(CO)CC2)cc1NC(C)=O`, the logD worked out at 1.03.

Regarding `COc1cc(OC)c(S(=O)(=O)N2c3ccccc3CCC2C)cc1NC(C)=O` (centres undefined), the logD was found to be 1.97.

Turning to `Cc1cc(COc2cnc(N3CCN(C(=O)OC(C)(C)C)CC3)nc2)ccn1`, the logD was 3.7.

`N#CC1(NC(=O)[C@@H]2CCCC[C@H]2C(=O)N2CCc3[nH]c4ccc(F)cc4c3C2)CC1`: the logD was 3.

In the case of `CCNC(=O)c1cc2c(-n3ccc(C(F)(F)F)n3)c(-c3cc(-c4n[nH]c(=O)o4)cnc3OC)cnc2[nH]1`, the log distribution coefficient (logD) is 2.91.

For `C[C@@H]1CN(C(=O)OC(C)(C)C)CCN1c1ncc(OCC2CCN(S(C)(=O)=O)CC2)cn1`, the logD was determined as 3.5.

Turning to `COc1cc(N2CC3COCC(C2)N3)ccc1Nc1ncc(Cl)c(-c2cnc3ccccn23)n1`, the logD turned out to be 3.

`N#CC1(NC(=O)[C@@H]2CCCC[C@H]2C(=O)N2CCN(c3nc(C(F)(F)F)cs3)CC2)CC1` gave a logD of 2.4.

Regarding `COc1ccc(N(C(=O)c2occc2Cl)C(C(=O)NC[C@@H](C)O)c2ccccc2F)c(OC)c1` (some centres undefined), the logD was found to be 2.18.

Turning to `C[C@@H]1CN(C(=O)OC(C)(C)C)CCN1c1ncc(OCc2ccc(S(C)(=O)=O)cc2C#N)cn1`, the logD is 3.3.

Regarding `CCCSc1ncccc1C(=O)NC1CCCCC1`, the logD was 3.24.

`Cc1nn(C)c2ccc(N3CCN(C(=O)[C@@H]4CCCC[C@H]4C(=O)NC4(C#N)CC4)[C@H](C)C3)cc12` came in with a logD of 2.8.

The compound `CC(C)(C)OC(=O)N1CCN(c2ccc(OCc3ccc(S(C)(=O)=O)cc3)cn2)CC1` displayed a logD of 3.2.

For the compound `Cc1nc2nc[nH]n2c(=O)c1CCOC(=O)c1c(F)cccc1F`, the logD was determined as 0.16.

In the case of `C[C@H]1COCCN1c1cc(CS(C)(=O)=O)nc(-c2ccc3[nH]ccc3c2)n1`, the logD stood at 2.38.

As to `C[C@@H]1CN(C(=O)OC(C)(C)C)CCN1c1ncc(OCc2ccc(S(C)(=O)=O)cc2F)cn1`, the log distribution coefficient (logD) is 3.7.

In turn, `CC(C)(C)OC(=O)N1CCN(c2ncc(OCc3ccc(S(C)(=O)=O)cc3)nn2)CC1` registered a logD of 2.93.

`N#CC1(NC(=O)[C@@H]2CCCC[C@H]2C(=O)N2CCc3[nH]c4ncccc4c3C2)CC1` yielded a logD of 2.13.
